In patent publication US5952310A, “Glycopeptide hexapeptides” (priority 1998, dated 1999):

Experiments:
[1] = tested on: Enterococcus faecium and faecalis (SENSITIVE); assay: MIC, standard broth micro-dilution assay, sensitive enterococci; type: cell-based; settings: geometric mean of 4-6 isolates
[2] = tested on: Staphylococcus epidermidis 270
[3] = tested on: Streptococcus pyogenes C203; assay: MIC, standard broth micro-dilution assay, SPY C203; type: cell-based
[4] = tested on: Streptococcus pneumoniae P1
Protocol: (§1) The minimal inhibitory concentrations (MICs) were determined using a standard broth micro-dilution assay.

[5] = tested on: Staphylococcus aureus 446
Protocol: as §1

[6] = tested on: Enterococcus faecium and faecalis (RESISTANT); settings: geometric mean of 4-6 isolates
Protocol: as §1

[7] = tested on: Staphylococcus haemolyticus 105; assay: MIC, standard broth micro-dilution assay, SH 105; type: cell-based
[8] = tested on: Staphylococcus aureus 447; assay: MIC, standard broth micro-dilution assay, SA447; type: cell-based
[9] = tested on: Staphylococcus haemolyticus 415; assay: MIC, standard broth micro-dilution assay, SH 415; type: cell-based
[10] = tested on: Staphylococcus aureus 489; assay: MIC, standard broth micro-dilution assay, SA489; type: cell-based

SMILES | Minimal Inhibitory Concentration (MIC) Sensitive [1] | Minimal Inhibitory Concentration (MIC) SE 270 [2] | Minimal Inhibitory Concentration (MIC) SPY C203 [3] | Minimal Inhibitory Concentration (MIC) SPN P1 [4] | Minimal Inhibitory Concentration (MIC) SA 446 [5] | Minimal Inhibitory Concentration (MIC) Resistant [6] | Minimal Inhibitory Concentration (MIC) SH 105 [7] | Minimal Inhibitory Concentration (MIC) SA 447 [8] | Minimal Inhibitory Concentration (MIC) SH 415 [9] | Minimal Inhibitory Concentration (MIC) SA 489 [10]
CC1OC(OC2c3ccc(c(Cl)c3)Oc3cc4cc(c3OC3OC(CO)C(O)C(O)C3O)Oc3ccc(cc3Cl)C(O)C(N)C(=O)NC(CC(N)=O)C(=O)NC4C(=O)NC3C(=O)NC2C(=O)NC(C(=O)O)c2cc(O)cc(O)c2-c2cc3ccc2O)CC(C)(N)C1O (stereo not drawn) [Example 7, N^DISACC -DES-EPIVANCOAMINYL-DESLEUCYL-A82846B] | 56 | > 64 | 4 | 2 | 32 | > 128 | 64 | 64 | > 64 | 8
CC1OC(OC2c3ccc(c(Cl)c3)Oc3cc4cc(c3OC3OC(CO)C(O)C(O)C3OC3CC(C)(NCc5ccc(Cl)cc5)C(O)C(C)O3)Oc3ccc(cc3Cl)C(O)C(N)C(=O)NC(CC(N)=O)C(=O)NC4C(=O)NC3C(=O)NC2C(=O)NC(C(=O)O)c2cc(O)cc(O)c2-c2cc3ccc2O)CC(C)(N)C1O (stereo not drawn) [Example 2, N^DISACC -(p-CHLOROBENZYL)-DESLEUCYL-A82846B] | 5.2 | 2 | ≤ 0.06 | – | 4 | > 81 | 2 | 2 | 4 | 0.5
CC1OC(OC2c3ccc(c(Cl)c3)Oc3cc4cc(c3OC3OC(CO)C(O)C(O)C3OC3CC(C)(N)C(O)C(C)O3)Oc3ccc(cc3Cl)C(O)C(N)C(=O)NC(CC(N)=O)C(=O)NC4C(=O)NC3C(=O)NC2C(=O)NC(C(=O)O)c2cc(O)cc(O)c2-c2cc3ccc2O)CC(C)(N)C1O (stereo not drawn) [Example 1, DESLEUCYL-A82846B] | > 128 | 64 | 4 | – | 64 | > 128 | > 64 | 64 | > 64 | 32
CCCCc1ccc(CNC2(C)CC(OC3C(Oc4c5cc6cc4Oc4ccc(cc4Cl)C(OC4CC(C)(N)C(O)C(C)O4)C4NC(=O)C(NC(=O)C6NC(=O)C(CC(N)=O)NC(=O)C(N)C(O)c6ccc(c(Cl)c6)O5)c5ccc(O)c(c5)-c5c(O)cc(O)cc5C(C(=O)O)NC4=O)OC(CO)C(O)C3O)OC(C)C2O)cc1 (stereo not drawn) [Example 5, N^DISACC -(p-n-BUTYLBENZYL)-DESLEUCYL-A82846B] | 9.2 | 1 | 0.125 | 0.25 | 1 | 108 | 1 | 2 | 2 | 1
CC1OC(OC2c3ccc(c(Cl)c3)Oc3cc4cc(c3OC3OC(CO)C(O)C(O)C3OC3CC(C)(NCc5ccc(-c6ccccc6)cc5)C(O)C(C)O3)Oc3ccc(cc3Cl)C(O)C(N)C(=O)NC(CC(N)=O)C(=O)NC4C(=O)NC3C(=O)NC2C(=O)NC(C(=O)O)c2cc(O)cc(O)c2-c2cc3ccc2O)CC(C)(N)C1O (stereo not drawn) [Example 4, N^DISACC -(p-PHENYLBENZYL)-DESLEUCYL-A82846B] | 3.4 | 1 | ≤ 0.06 | 0.125 | 2 | 16 | 1 | 1 | 1 | 0.25
CC1OC(OC2c3ccc(c(Cl)c3)Oc3cc4cc(c3OC3OC(CO)C(O)C(O)C3OC3CC(C)(NCc5ccc(Oc6ccccc6)cc5)C(O)C(C)O3)Oc3ccc(cc3Cl)C(O)C(N)C(=O)NC(CC(N)=O)C(=O)NC4C(=O)NC3C(=O)NC2C(=O)NC(C(=O)O)c2cc(O)cc(O)c2-c2cc3ccc2O)CC(C)(N)C1O (stereo not drawn) [Example 3, N^DISACC -(p-PHENOXYBENZYL)-DESLEUCYL-A82846B] | 14 | 0.5 | ≤ 0.06 | ≤ .06 | 2 | 45 | 2 | 1 | 1 | 1
CC1OC(OC2c3ccc(c(Cl)c3)Oc3cc4cc(c3OC3OC(CO)C(O)C(O)C3OC3CC(C)(NCc5ccc(-c6ccc(Cl)cc6)cc5)C(O)C(C)O3)Oc3ccc(cc3Cl)C(O)C(N)C(=O)NC(CC(N)=O)C(=O)NC4C(=O)NC3C(=O)NC2C(=O)NC(C(=O)O)c2cc(O)cc(O)c2-c2cc3ccc2O)CC(C)(N)C1O (stereo not drawn) [Example 6, N^DISACC -(p-(p-CHLOROPHENYL)-BENZYL)DESLEUCYL-A82846B] | 2.6 | 0.5 | ≤ .06 | 0.25 | 2 | 6.7 | 0.5 | 1 | 1 | 2
CC1OC(OC2c3ccc(c(Cl)c3)Oc3cc4cc(c3OC3OC(CO)C(O)C(O)C3OC3CC(C)(NCCCCCCCCc5ccccc5)C(O)C(C)O3)Oc3ccc(cc3Cl)C(O)C(N)C(=O)NC(CC(N)=O)C(=O)NC4C(=O)NC3C(=O)NC2C(=O)NC(C(=O)O)c2cc(O)cc(O)c2-c2cc3ccc2O)CC(C)(N)C1O (stereo not drawn) [Example 8, N^DISACC -(8-PHENYL-n-OCTYL)DESLEUCYL-A82846B] | 0.76 | 1 | 0.125 | 0.125 | 4 | 5.7 | 0.25 | 2 | 2 | 1
